Assay results published in patent publication US11274115B2, “Imidazoquinoline derivatives and their use in therapy” (GLAXOSMITHKLINE BIOLOGICALS SA, priority 2016, dated 2022).
Like-named read-outs stand apart in the source and are kept apart here.

Experiments:
Type in all cases: cell-based
[1] = biological target: T1, human TLR8 (Homo sapiens, UniProt Q9NR97); assay: hTLR8 agonist reporter assay in HEK293 cells (NFκB-SEAP); conditions: for EC50: read-out: hTLR8 ED50
T1 construct: host or cells: HEK293
T1 sequence (Q9NR97 27-1041): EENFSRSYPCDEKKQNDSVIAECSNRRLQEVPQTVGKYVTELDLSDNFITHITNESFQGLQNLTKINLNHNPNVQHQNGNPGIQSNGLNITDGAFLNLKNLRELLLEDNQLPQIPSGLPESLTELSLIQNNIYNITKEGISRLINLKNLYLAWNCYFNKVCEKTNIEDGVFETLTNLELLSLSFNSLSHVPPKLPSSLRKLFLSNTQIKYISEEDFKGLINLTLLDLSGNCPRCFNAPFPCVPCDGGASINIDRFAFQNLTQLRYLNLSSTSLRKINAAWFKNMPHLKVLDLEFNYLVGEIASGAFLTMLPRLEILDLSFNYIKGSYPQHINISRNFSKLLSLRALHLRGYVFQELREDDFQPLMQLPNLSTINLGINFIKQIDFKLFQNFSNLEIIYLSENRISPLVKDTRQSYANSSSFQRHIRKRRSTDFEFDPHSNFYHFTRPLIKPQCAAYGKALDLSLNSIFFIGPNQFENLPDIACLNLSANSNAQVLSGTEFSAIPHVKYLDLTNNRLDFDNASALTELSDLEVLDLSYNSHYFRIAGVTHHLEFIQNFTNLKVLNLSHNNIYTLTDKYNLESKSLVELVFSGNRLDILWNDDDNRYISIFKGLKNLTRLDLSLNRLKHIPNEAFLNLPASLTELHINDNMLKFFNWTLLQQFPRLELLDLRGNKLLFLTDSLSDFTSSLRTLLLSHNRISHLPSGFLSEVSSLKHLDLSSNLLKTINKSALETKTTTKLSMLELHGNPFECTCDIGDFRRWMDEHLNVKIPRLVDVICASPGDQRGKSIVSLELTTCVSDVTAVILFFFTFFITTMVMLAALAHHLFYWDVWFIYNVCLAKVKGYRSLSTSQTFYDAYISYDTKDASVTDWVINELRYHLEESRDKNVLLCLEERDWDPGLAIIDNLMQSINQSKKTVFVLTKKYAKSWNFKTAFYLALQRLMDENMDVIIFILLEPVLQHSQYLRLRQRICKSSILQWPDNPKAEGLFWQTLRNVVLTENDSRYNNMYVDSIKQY
Protocol: Assay for hTLR7 and hTLR8 Agonist Activity in HEK-293 Cells
Determination of TLR agonist activity was performed using the HEK293 […]. This assay measures TLR7 and TLR8 selectivity and potency of the compounds tested. HEK293 cells expressing human TLR7 or TLR8 and NFκB responsive Secreted Embryonic Alkaline Phosphatase (SEAP) reporter gene were obtained from InvivoGen (San Diego, Calif.). These cells were maintained in culture media of Dulbecco's Modified Eagle Medium (DMEM) (Invitrogen, Grand Island, N.Y.), 10% Fetal Bovine Serum (FBS) (Sigma, St. Louis, Mo.) and selection antibiotics (Invitrogen, and Invivogen). HEK293 stably transfected with human TLR7 (hTLR7) or human TLR8 (hTLR8) were stimulated for 24 h with aqueous formulations of test compounds and culture supernatants were analyzed for NFκB activation using the colorimetric SEAP detection kit QuantBlue (InvivoGen).

[2] = tested on: human peripheral blood mononuclear cells (hPBMCs); assay: IFN-γ induction in hPBMCs; conditions: 24 h
Protocol: (§1) Assays to Measure Cytokine Induction
(§2) Test compounds were evaluated for cytokine induction in human peripheral blood mononuclear cells (hPBMCs).
(§3) Primary human PBMCs were isolated from fresh blood from healthy donors via Ficoll gradient separation and plated at 0.5×10^6 cells/well in 96-well tissue culture plates (RPMI-1640 plus 10% FBS). hPBMCs were maintained with RPMI-1640 culture media (Invitrogen, Grand Island, N.Y.), antibiotics (Invitrogen) and 10% FBS (Sigma).
(§4) Incubation and Assays for IFN-γ, IFN-α and TNF-α
(§5) hPBMCs were stimulated for 24 h with aqueous formulations of test compounds. Culture supernatants were analyzed for TNF-α and IFN-γ induction using multiplex kits (FluoroKine multiplex kits from R&D Systems, Minneapolis, Minn.) and for IFN-α induction using human IFN-α VeriKine ELISA kit (Pestka Biomedical Laboratories, Inc., Piscataway, N.J.).

[3] = tested on: human peripheral blood mononuclear cells (hPBMCs); assay: IFN-α induction in hPBMCs; conditions: 24 h
Protocol: as §1, §2, §3, §4, §5

[4] = tested on: human peripheral blood mononuclear cells (hPBMCs); assay: TNF-α induction in hPBMCs; conditions: 24 h
Protocol: as §1, §2, §3, §4, §5

Question: With `CCCCCCCC/C=C\CCCCCCCC(=O)OC[C@H](COP(=O)(O)OCCOc1ccc2c(c1)nc(N)c1nc(CCCC)n(CCO)c12)OC(=O)CCCCCCC/C=C\CCCCCCCC` [Example 1] as the molecule, how does the EC50 ([1]; Table 1, FIG. 2, 24 h stimulation, aqueous formulations) read?
Answer: 100 nM

Question: What about the EC50 ([1]; Table 2, FIG. 4, another occasion, * = only very low levels of NFKB activation were detected) of the same molecule?
Answer: 800 nM

Question: And the “hTLR8 agonist activity, in words” value ([1]; Table 3, FIG. 6)?
Answer: agonist of both TLR7 and TLR8

Question: And the EC50 ([1]; Table 3, FIG. 6, another occasion, * = only very low levels of NFKB activation were detected)?
Answer: 590 nM

Question: And the EC50 ([1]; Table 4, FIG. 8, another occasion)?
Answer: 710 nM

Question: What about the “hTLR8 agonist activity, in words” value ([1]; text on Table 1, FIG. 2) of the same molecule?
Answer: significantly more potent as an agonist of hTLR7 and hTLR8 than Comparative Example 2

Question: What about the “hTLR8 agonist activity, in words” value ([1]; text on Table 2, FIG. 4) of the same molecule?
Answer: more active than Comparative Example 2 as an agonist of hTLR7 and hTLR8

Question: What about the “IFN-γ induction, in words” value ([2]; FIG. 9) of the same molecule?
Answer: more potent than Comparative Example 3 but less potent than Comparative Example 1

Question: What about the “IFN-γ induction, in words” value ([2]; FIG. 11, another occasion) of the same molecule?
Answer: potent at inducing IFN-γ and each was more potent than Comparative Example 3

Question: And the “IFN-α induction, in words” value ([3]; FIG. 10)?
Answer: equipotent at inducing IFN-α and these were more potent than Comparative Example 1 and Comparative Example 2 in this assay at a lower dose

Question: What about the “IFN-α induction, in words” value ([3]; FIG. 12, another occasion) of the same molecule?
Answer: more potent at inducing IFN-α than Comparative Examples 1, 2 and 3

Question: And the “IFN-α induction, in words” value ([3]; FIG. 14, another occasion)?
Answer: very effective at inducing IFN-α

Question: And the “IFN-α induction, in words” value ([3]; FIG. 16, another occasion)?
Answer: good activity in inducing IFN-α

Question: What about the “TNF-α induction, in words” value ([4]; FIG. 13) of the same molecule?
Answer: potent at inducing TNF-α

Question: And the “TNF-α induction, in words” value ([4]; FIG. 15, another occasion)?
Answer: effective at inducing TNF-α
